According to patent US20200079765A1, “SUBSTITUTED HETEROARYL PYRROLONES AND SALTS THEREOF AND USE THEREOF AS HERBICIDAL ACTIVE SUBSTANCES” (Bayer CropScience Aktiengesellschaft, priority 2016, published 2020):

Tests used:
Matricaria inodora [1] = experiment: Herbicidal pre-emergence action (Experimental Part 2, D); assay type: in vivo; conditions: pre-emergence (Part 2), scored visually after about 3 weeks
Description: (§1) Seeds of mono- and dicotyledonous weed plants were placed in plastic pots in sandy loam soil (doubly sown with in each case one species of mono- or dicotyledonous weed plants per pot) and covered with soil. The compounds of the invention, formulated in the form of wettable powders (WP) or as emulsion concentrates (EC), were then applied onto the surface of the covering soil as aqueous suspension or emulsion with addition of 0.5% additive at a water application rate of 600 liters per hectare (converted). After the treatment, the pots are placed in a greenhouse and kept under good growth conditions for the trial plants. After about 3 weeks, the effect of the preparations was scored visually in comparison with untreated controls as percentages. For example, 100% activity=the plants have died, 0% activity=like control plants. Tables D1 to D8 below show the effects of selected compounds of the general formula (I) according to Tables I.1 to I.116 on various harmful plants and an application rate corresponding to 1280 g/ha or 320 g/ha, which were obtained by the experimental procedure mentioned above.

Poa annua [2] = experiment: as above; assay type: in vivo; conditions: pre-emergence (Part 2), scored visually after about 3 weeks
Description: as §1

Stellaria media [3] = experiment: as above; assay type: in vivo; conditions: pre-emergence (Part 2), scored visually after about 3 weeks
Description: as §1

Lolium rigidum = experiment: as above; assay type: in vivo; conditions: pre-emergence (Part 2), scored visually after about 3 weeks
Description: as §1

Setaria viridis [4] = experiment: as above; assay type: in vivo; conditions: pre-emergence (Part 2), scored visually after about 3 weeks
Description: as §1

Abutilon theophrasti [5] = experiment: Herbicidal post-emergence action (Experimental Part 2, C); assay type: in vivo; conditions: post-emergence (Part 2), rated visually after about 3 weeks
Method: (§2) Seeds of mono- and dicotyledonous weed plants were placed in plastic pots in sandy loam soil (doubly sown with in each case one species of mono- or dicotyledonous weed plants per pot), covered with soil and cultivated in a greenhouse under controlled growth conditions. 2 to 3 weeks after sowing, the test plants were treated at the one-leaf stage. The compounds of the invention, formulated in the form of wettable powders (WP) or as emulsion concentrates (EC), were applied onto the green parts of the plants as aqueous suspension or emulsion with addition of 0.5% additive at a water application rate of 600 liters per hectare (converted). After the test plants had been kept in the greenhouse under optimum growth conditions for about 3 weeks, the activity of the preparations was rated visually in comparison to untreated controls. For example, 100% activity=the plants have died, 0% activity=like control plants. Tables C1 to C8 below show the effects of selected compounds of the general formula (I) according to Tables I.1 to I.116 on various harmful plants and an application rate corresponding to 1280 g/ha or 320 g/ha, which were obtained by the experimental procedure mentioned above.

Matricaria inodora [6] = experiment: as above; assay type: in vivo; conditions: post-emergence (Part 2), rated visually after about 3 weeks
Method: as §2

Poa annua [7] = experiment: as above; assay type: in vivo; conditions: post-emergence (Part 2), rated visually after about 3 weeks
Method: as §2

Stellaria media [8] = experiment: as above; assay type: in vivo; conditions: post-emergence (Part 2), rated visually after about 3 weeks
Method: as §2

Setaria viridis [9] = experiment: as above; assay type: in vivo; conditions: post-emergence (Part 2), rated visually after about 3 weeks
Method: as §2

photosystem II (PS II) = molecular target: T1, photosystem II (PS II) (Spinacia oleracea, UniProt P69560); experiment: Measurement of the PS II activity in thylakoid membranes (DCPIP reduction, Experimental Part 3, Table E1); assay type: biochemical; conditions: spinach thylakoid membranes
T1 construct: the chloroplasts were osmotically ruptured and the thylakoid membranes were then obtained by centrifugation; from tissue; host or cells: thylakoid membranes from fresh spinach leaves
Method: Cooled fresh spinach leaves were comminuted and homogenized in 50 mM phosphate buffer, pH 6.8. 10 mM KCl, 0.34 M sucrose (sucrose buffer) (blender, 1 g of plant material/ml). The homogenate was subsequently filtered through 4 layers of Miracloth and the chloroplasts were isolated by centrifugation, i.e. 10 min of centrifugation at 4400×g (4° C.). The sediment was suspended in 25 ml of sucrose buffer and re-centrifuged for 10 min at 4400×g (4° C.). The sediment was then suspended in 40 ml of 50 mM phosphate buffer, pH 6.8, 10 mM KCl, without sucrose. In this step, the chloroplasts were osmotically ruptured and the thylakoid membranes were then obtained by centrifugation (10 min, 4400×g, 4° C.). The membrane sediment was finally suspended in about 20 ml of 50 mM phosphate buffer, pH 6.8, 10 mM KCl. Following protein determination and activity determination, the membrane suspension was divided into aliquots and frozen in liquid nitrogen. The aliquots were stored at −80° C. Under these conditions, the photosystem II preparation was storage stable for at least three months. The activity determination of photosystem II (PS II) was then carried out using the following test principle: The electron transfer from PS II to an artificial electron acceptor, 2,6-dichlorophenolindophenol (DCPIP), was measured with exposure to light. The concentration of the blue oxidized form of DCPIP was determined spectrophotometrically at wavelength λ=595 nm. […] The activity determination was carried out in microtiter plates (96 cavities) in a reaction volume of 200 μl. Here, 155 μl of dilute membrane suspension were initially charged in 50 mM of phosphate buffer, pH 6.8, 10 mM KCl. Depending on the activity of the PS II preparation, the dilution was adjusted such that the measurement of the decrease in absorption (λ=595 nm) was linear for at least 10 min. In each case 5 μl solution of the test compounds of a concentration of 100 μM in DMSO were added to the enzyme suspension; controls contained 5 μl DMSO; the final concentration of DMSO in the reaction batch was thus 2.5% (v/v); this concentration had no adverse effect on the enzymatic activity. On each microtiter plate, a known PS II inhibitor, for example metribuzin, was used as standard, which allowed the quality of the PS II test to be assessed. The reaction was started by addition of 40 μl DCPIP solution (600 μM in distilled water); the final concentration of DCPIP was 120 μM. Measurement of absorption was carried out over a period of 10 min at 22° C. and with exposure to light. Using metribuzin as comparative substance, the results for the efficacy of the compounds of the general formula (I) at 100 μM are stated in the table below using the following classification: ++++ (inhibition≥90%), +++ (90%>inhibition≥70%), ++ (70%>inhibition≥50%), + (50%>inhibition≥30%).
Effects of selected compounds of the general formula (I) according to the following table E1: […]

Abutilon theophrasti [10] = experiment: Herbicidal pre-emergence action (Experimental Part 2, D); assay type: in vivo; conditions: pre-emergence (Part 2), scored visually after about 3 weeks
Description: as §1

Echinochloa crus-galli [11] = experiment: as above; assay type: in vivo; conditions: pre-emergence (Part 2), scored visually after about 3 weeks
Description: as §1

Amaranthus retroflexus [12] = experiment: as above; assay type: in vivo; conditions: pre-emergence (Part 2), scored visually after about 3 weeks
Description: as §1

Echinochloa crus-galli [13] = experiment: Herbicidal post-emergence action (Experimental Part 2, C); assay type: in vivo; conditions: post-emergence (Part 2), application rate 1280 g/ha, rated visually after about 3 weeks
Method: as §2

Amaranthus retroflexus [14] = experiment: as above; assay type: in vivo; conditions: post-emergence (Part 2), rated visually after about 3 weeks
Method: as §2

SMILES	Matricaria inodora, herbicidal activity (Matricaria inodora [1]; application rate 1280 g/ha) [%]	Poa Annua, herbicidal activity (Poa annua [2]; application rate 320 g/ha) [%]	Lolium rigidum, herbicidal activity (Lolium rigidum; application rate 1280 g/ha) [%]	Setaria viridis, herbicidal activity (Setaria viridis [4]; application rate 320 g/ha) [%]	Abutilon theophrasti, herbicidal activity (Abutilon theophrasti [5]; application rate 320 g/ha) [%]	Stellaria media, herbicidal activity (Stellaria media [8]; application rate 1280 g/ha) [%]	Setaria viridis, herbicidal activity (Setaria viridis [9]; application rate 1280 g/ha) [%]	Effect (inhibition of PS II activity) (photosystem II (PS II))	Abutilon theophrasti, herbicidal activity (Abutilon theophrasti [10]; application rate 320 g/ha) [%]	Stellaria media, herbicidal activity (Stellaria media [3]; application rate 320 g/ha) [%]	Setaria viridis, herbicidal activity (Setaria viridis [4]; application rate 1280 g/ha) [%]	Amaranthus retroflexus, herbicidal activity (Amaranthus retroflexus [12]; application rate 1280 g/ha) [%]	Matricaria inodora, herbicidal activity (Matricaria inodora [6]; application rate 320 g/ha) [%]	Poa Annua, herbicidal activity (Poa annua [7]; application rate 320 g/ha) [%]	Stellaria media, herbicidal activity (Stellaria media [8]; application rate 320 g/ha) [%]	Echinochloa crus-galli, herbicidal activity (Echinochloa crus-galli [13]) [%]	Amaranthus retroflexus, herbicidal activity (Amaranthus retroflexus [14]; application rate 320 g/ha) [%]	Poa Annua, herbicidal activity (Poa annua [2]; application rate 1280 g/ha) [%]	Abutilon theophrasti, herbicidal activity (Abutilon theophrasti [5]; application rate 1280 g/ha) [%]	Amaranthus retroflexus, herbicidal activity (Amaranthus retroflexus [14]; application rate 1280 g/ha) [%]	also measured
CCC(=O)OC1C(C)=CC(=O)N1c1cc(C(F)(F)F)c(Cl)cn1 (centres unmarked) [I.5-451, 5-Ethylcarbonyloxy-4-methyl-1-(5-chloro-4-trifluoromethylpyridin-2-yl)-1,5-dihydro-2H-pyrrol-2-one]	90	100	90	100	100	100	90														Stellaria media, herbicidal activity (Stellaria media [3]; application rate 1280 g/ha): 100%; Matricaria inodora, herbicidal activity (Matricaria inodora [6]; application rate 1280 g/ha): 90%; Poa Annua, herbicidal activity (Poa annua [7]; application rate 1280 g/ha): 100%
CC1=CC(=O)N(c2onc(C(C)(C)C)c2C)C1O (centres unmarked) [I.1-300]		90	90		100			+++ (90%>inhibition≥70%)	100	100	100	90	100	100	100	100	100				Matricaria inodora, herbicidal activity (Matricaria inodora [1]; application rate 320 g/ha): 100%; Echinochloa crus-galli, herbicidal activity (Echinochloa crus-galli [11]; application rate 320 g/ha): 100%; Setaria viridis, herbicidal activity (Setaria viridis [9]; application rate 320 g/ha): 100%
CC1=CC(=O)N(c2noc(C(C)(C)C)c2C)C1O (centres unmarked) [I.1-177]	100			100			100	++++ (inhibition≥90%)	100			90	100		100	100		100	100	100	Stellaria media, herbicidal activity (Stellaria media [3]; application rate 1280 g/ha): 100%; Lolium rigidum, herbicidal activity (Lolium rigidum; application rate 320 g/ha): 90%; Echinochloa crus-galli, herbicidal activity (Echinochloa crus-galli [11]; application rate 1280 g/ha): 100%; Poa Annua, herbicidal activity (Poa annua [7]; application rate 1280 g/ha): 100%
CC1=CC(O)N(c2onc(C(C)(C)C)c2C)C1=O (centres unmarked) [I.2-300]	90			90		100	90	++++ (inhibition≥90%)	90	90							100	90	100		Amaranthus retroflexus, herbicidal activity (Amaranthus retroflexus [12]; application rate 320 g/ha): 100%
CC(=O)OC1C(C)=CC(=O)N1c1cc(C(F)(F)F)c(Cl)cn1 (centres unmarked) [I.3-451]		90	90		100			+++ (90%>inhibition≥70%)		100	100		90	100	100					100	
CC1=CC(=O)N(c2cc(C(F)(F)F)c(Cl)cn2)C1O (centres unmarked) [I.1-451, 5-Hydroxy-4-methyl-1-(5-chloro-4-trifluoromethylpyridin-2-yl)-1,5-dihydro-2H-pyrrol-2-one]	100				100			++++ (inhibition≥90%)		100	100	90	90	100	100	100		90		100	
CC1=CC(=O)N(c2cscn2)C1O (centres unmarked) [I.1-91]	90					100	100										100		100		Abutilon theophrasti, herbicidal activity (Abutilon theophrasti [10]; application rate 1280 g/ha): 100%; Amaranthus retroflexus, herbicidal activity (Amaranthus retroflexus [12]; application rate 320 g/ha): 100%; Matricaria inodora, herbicidal activity (Matricaria inodora [6]; application rate 1280 g/ha): 100%
